# The source made the active and inactive calls.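 How the source made its calls: active means compound whose fitted growth curve, scaled so untreated is 0 and control 100, reaches 40 within the tested doses; inconclusive means flat curve between 30 and 70 percent, or unreliable fit; inactive means the rest, including drops in growth.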
# System: S. cerevisiae GAL-BEM3 growth rescue, OD600, 48 h
# Assay: rescue of BEM3-induced yeast toxicity, dose response, S. cerevisiae, dry powder, plate reader (AID 602280)
row,SMILES,AC40
1,Cc1ccccc1CSc1nsc(N)n1,> 26 µM (inactive)
2,O=c1c2ccccc2[nH]c(=S)n1CCC1=CCCCC1,22 µM
3,Fc1cc(NCc2ccccc2)nc(NCc2ccccc2)n1,8.75 µM
4,CC(C)c1ccc(C2NC(=O)c3ccccc3O2)cc1 (centres undefined),2.3 µM

# From PubChem BioAssay AID602280 (Broad Institute, 2012)
